Among the test systems are 786-0; A549; COLO 205; EKVX; HCT-15; HL-60; HOP-92; MCF7; NCI-H522; OVCAR-8; PC-3; RPMI-8226; SF-268; SF-295; SK-MEL-5; SN12C; SNB-19; T47D; TK-10; UACC-62.
Holding throughout (assay): NCI anticancer screen, dose series, 48 h

This note sets out measurements from ChEMBL document CHEMBL1201862, “PubChem BioAssay data set” (2004).

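Five concentrations, 48 hours, 96-well plates. Abbreviation: GI50, concentration required for 50% inhibition of growth.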 The source made the active and inactive calls. Rule as the data show it: active = GI50 up to about 1.1 µM and inactive = higher. Some results are limits rather than exact numbers.

In the case of `CC(=O)NNc1nc(-c2ccc([N+](=O)[O-])cc2)c(C#N)c(=O)n1C`, the GI50 was 22.1 µM (inactive) in the experiment with 786-0; > 100 µM (inactive) in the experiment with A549; 44.6 µM (inactive) with COLO 205; 38 µM (inactive) with EKVX; 29.3 µM with HCT-15; 25.9 µM (inactive) with HL-60. For the same molecule, the GI50 in the experiment on HOP-92 was 13.5 µM (inactive); in the experiment with MCF7, 28.5 µM (inactive); with NCI-H522 it was 22.1 µM (inactive); with OVCAR-8, 27 µM (inactive); in the experiment on PC-3 it was 37.7 µM (inactive); in the experiment on RPMI-8226, 21.1 µM (inactive). For the same molecule, the GI50 was 33.1 µM (inactive) in the experiment with SF-268; 47.5 µM (inactive) with SF-295; > 100 µM (inactive) in the experiment on SK-MEL-5; > 100 µM (inactive) in the experiment on SN12C; > 100 µM (inactive) in the experiment on SNB-19; > 100 µM (inactive) in the experiment with T47D. Further, the GI50 with TK-10 was 24 µM (inactive); with UACC-62, 66.8 µM (inactive).

Regarding `CCN(CC)C(=S)SNc1ccc(S(N)(=O)=O)cc1`, the GI50 in the experiment on 786-0 is 29.9 µM (inactive); in the experiment on A549, 74.6 µM (inactive); in the experiment with COLO 205, 68.7 µM (inactive); in the experiment on EKVX, > 100 µM (inactive); in the experiment with HCT-15, over 77.4 µM; in the experiment with HL-60, 0.064 µM (active). Besides, the GI50 in the experiment on HOP-92 is > 56.2 µM (inactive); with MCF7 it was 0.0383 µM (active); with NCI-H522, 0.0755 µM (active); in the experiment on OVCAR-8 it was 23.3 µM (inactive); in the experiment on PC-3 it was 47.8 µM (inactive); in the experiment with RPMI-8226, 20.2 µM (inactive). For the same molecule, the GI50 in the experiment on SF-268 is > 75.7 µM (inactive); in the experiment on SF-295, > 66.5 µM (inactive); in the experiment with SK-MEL-5, 30.5 µM (inactive); in the experiment with SN12C, 68.1 µM (inactive); in the experiment on SNB-19, > 83.4 µM (inactive); in the experiment on T47D, 91.6 µM (inactive). Besides, the GI50 in the experiment on TK-10 and with UACC-62 was > 100 µM (inactive) each time.

Regarding `C=CCN1C(=O)C=C(c2ccccc2)n2ncc3cccc1c32`, the GI50 is > 100 µM (inactive) in the experiment with 786-0; > 100 µM (inactive) with A549; > 100 µM (inactive) with COLO 205; 95.5 µM (inactive) in the experiment with EKVX; over 100 µM with HCT-15; > 100 µM (inactive) with HL-60. Besides, the GI50 is 27.7 µM (inactive) with HOP-92; > 100 µM (inactive) in the experiment with MCF7; > 100 µM (inactive) with NCI-H522; > 100 µM (inactive) in the experiment on OVCAR-8; > 100 µM (inactive) with PC-3; 97.7 µM (inactive) with RPMI-8226. The GI50 in the experiment with SF-268 was > 100 µM (inactive); in the experiment with SF-295, > 100 µM (inactive); in the experiment with SK-MEL-5, 81.5 µM (inactive); in the experiment on SN12C it was > 100 µM (inactive); in the experiment on SNB-19 it was > 100 µM (inactive); in the experiment with T47D, 18.2 µM (inactive). Also, the GI50 in the experiment with TK-10 and in the experiment with UACC-62 was > 100 µM (inactive) in each case.

`C1CSCCSCCSCCSCCS1`: the GI50 in the experiment on 786-0 was > 100 µM (inactive); with A549, > 100 µM (inactive); in the experiment with COLO 205, > 100 µM (inactive); in the experiment on EKVX it was > 100 µM (inactive); in the experiment on HCT-15, over 100 µM; in the experiment with HL-60, > 100 µM (inactive). The GI50 with HOP-92, in the experiment with MCF7, in the experiment with NCI-H522, in the experiment with OVCAR-8, with PC-3 and in the experiment on RPMI-8226 was > 100 µM (inactive) in each case. Further, the GI50 in the experiment with SF-268, in the experiment on SF-295, in the experiment with SK-MEL-5, with SN12C, in the experiment with SNB-19 and with T47D was > 100 µM (inactive) in each case. Also, the GI50 with TK-10 and with UACC-62 was > 100 µM (inactive) throughout.

Take `O=C(O)c1nn(-c2ccccc2-c2nnc(O)nc2O)c(=O)[nH]c1=O`: the GI50 is > 100 µM (inactive) with 786-0; > 100 µM (inactive) in the experiment with A549; > 100 µM (inactive) in the experiment with COLO 205; > 100 µM (inactive) in the experiment with EKVX; over 100 µM in the experiment on HCT-15; 30.5 µM (inactive) in the experiment on HL-60. Also, the GI50 with HOP-92, in the experiment on MCF7, with NCI-H522, in the experiment with OVCAR-8, with PC-3 and with RPMI-8226 was > 100 µM (inactive) each time. The GI50 in the experiment on SF-268, in the experiment with SF-295, in the experiment with SK-MEL-5, in the experiment with SN12C, in the experiment with SNB-19 and in the experiment on T47D was > 100 µM (inactive) each time. The GI50 in the experiment with TK-10 and with UACC-62 was > 100 µM (inactive) in each case.

For the molecule `Cc1nnc(N)nc1/C=C\c1cccs1`, the GI50 is 18.6 µM (inactive) in the experiment with 786-0; 27.7 µM (inactive) in the experiment with A549; 27.7 µM (inactive) with COLO 205; 13.3 µM (inactive) with EKVX; 10.2 µM in the experiment on HCT-15; 6.11 µM (inactive) in the experiment with HL-60. The GI50 with HOP-92 is 18.4 µM (inactive); in the experiment on MCF7, 13.9 µM (inactive); in the experiment with NCI-H522 it was 4.06 µM (inactive); in the experiment on OVCAR-8, 17 µM (inactive); in the experiment with PC-3, 17.2 µM (inactive); with RPMI-8226, 22.4 µM (inactive). For the same molecule, the GI50 with SF-268 was 19.5 µM (inactive); with SF-295 it was 21.4 µM (inactive); in the experiment with SK-MEL-5, > 10 µM (inactive); in the experiment with SN12C it was > 10 µM (inactive); in the experiment with SNB-19 it was 33.6 µM (inactive); with T47D, 46.9 µM (inactive). Moreover, the GI50 was 32.4 µM (inactive) with TK-10 and 14.9 µM (inactive) in the experiment on UACC-62.

For the molecule `Nc1nc(Sc2ccc([N+](=O)[O-])c3nonc23)c2nc[nH]c2n1`, the GI50 is 0.489 µM (active) with 786-0; 3.69 µM (inactive) in the experiment on A549; 1.61 µM (inactive) in the experiment with COLO 205; 1.85 µM (inactive) in the experiment with EKVX; 1.89 µM with HCT-15; 1.71 µM (inactive) in the experiment with HL-60. The GI50 in the experiment on HOP-92 is 2.56 µM (inactive); with MCF7 it was 0.593 µM (active); with NCI-H522, 0.733 µM (active); with OVCAR-8, 0.721 µM (active); in the experiment with PC-3, 3.34 µM (inactive); in the experiment on RPMI-8226, 0.31 µM (active). In addition, the GI50 was 0.681 µM (active) with SF-268; 0.701 µM (active) in the experiment on SF-295; 2.15 µM (inactive) in the experiment on SK-MEL-5; 1.97 µM (inactive) in the experiment with SN12C; 15.8 µM (inactive) in the experiment on SNB-19; 1.2 µM (inactive) in the experiment with T47D. The GI50 in the experiment with TK-10 was 0.687 µM (active); in the experiment with UACC-62, 0.43 µM (active).
